# Measurements taken from patent US12550899B2, “Topramezone derivative and use thereof” (priority 2023, dated 2026).
# Columns and labels:
# Assay type in all cases: in vivo
# [1] = tested on: test weeds (grassy weeds, sedge, broadleaf weeds); assay: Laboratory bioactivity efficacy test 2.1, symptoms on the test weeds; conditions: test 2.1 weeds
# Description: (§1) Refer to the “Pesticides guidelines for laboratory bioactivity tests Part 4: Foliar spray application test for herbicide activity, NY/T 1155.4-2006”.
# (§2) • grassy weeds: Setaria viridis, Chloris virgata; • sedge: Cyperus rotundus; • Broadleaf weeds: Amaranthus retroflexus, Chenopodium album, Acalypha australis, Commelina communis, Convolvulus arvensis, Cirsium setosum, and Eclipta prostrata. 2.1.3 Test Conditions
# (§3) The soil used for the test was a mixture of surface 20 cm loam and vermiculite, mixed in a volume ratio of 3:1 to form a culture soil. The test corn was cultured in a glass greenhouse with a temperature ranging from 25° C. to 35° C. and under natural light.
# (§4) A measured quantity of weed seeds were sown in plastic pots with a diameter of 9 cm, and covered with 1-2 mm of soil. The ports were then placed in enamel trays filled with water, and watered by bottom irrigation. After sowing, the pots were transferred to the glass greenhouse for cultivation and growth.
# (§5) Five dosages were set for Compound I, Compound II and the control herbicide Topramezone, which were 3.75, 7.5, 15, 30 and 60 grams of active ingredient per hectare respectively. In addition, a blank control was also prepared.
# (§6) The required amount of the herbicide was accurately measured out, an appropriate amount of emulsifier and organic solvent were added to dissolve the herbicide, and then a certain amount of water was added therein until the herbicide was diluted to the required dosage by using the serial dilution method for standby.
# (§7) The fresh weight of each treatment was surveyed 14 days after the application of the herbicide. The fresh weight control efficacy was calculated according to the following formula: fresh weight control efficacy (%)=(control fresh weight−treatment fresh weight)/control fresh weight×100.
# Echinochloa crusgalli = assay: Laboratory bioactivity efficacy test 2.2 (foliar spray); conditions: fresh weight control efficacy 20 days post-application
# Protocol: (§8) • grassy weeds: Digitaria sanguinalis, Eleusine indica, Echinochloa crusgalli; • Broadleaf weeds: Portulaca oleracea, Abutilon theophrasti medicus. 2.2.2 Test Conditions
# (§9) The soil used for the test was a mixture of surface 20 cm loam and vermiculite, mixed in a volume ratio of 3:1 to form a culture soil. The test weeds were cultured in a glass greenhouse with a temperature ranging from 25° C. to 35° C. and under natural light.
# (§10) Quantified seeds of Digitaria sanguinalis, Eleusine indica, Echinochloa crusgalli, Portulaca oleracea, and Abutilon theophrasti medicus were sown in plastic pots with a diameter of 9 cm, and covered with 1-2 mm of soil. The ports were then placed in enamel trays filled with water, and watered by bottom irrigation. After the water seeped to the soil surface, the pots were transferred to the glass greenhouse for standby.
# as §5
# (§11) The required amount of the herbicide was accurately measured out and directly added with water, which was diluted to the required dosage by using the serial dilution method for standby.
# (§12) The test was conducted on grassy weeds at the two-leaf and one-heart stage, Abutilon theophrasti medicus at the 2-true-leaf stage, and Portulaca oleracea at the 3-5-leaf stage, with the stems and leaves both sprayed uniformly. The ASS-4 automatic control spraying system with a fan-shaped nozzle was used indoors for herbicide application. Depending on the nozzle pressure and flow rate, 50 mL of herbicide solution was applied to a spraying area of 1.1 m^2 (which was equivalent to the water consumption of 30 L per mu). The system's operating speed was calibrated. The plastic pots to be treated were arranged evenly on the spraying platform to ensure uniform treatment. The spray pressure was set to 0.35 MPa, and the flow rate of the fan-shaped nozzle was set to 800 mL/min. The spraying was carried out in sequence from the low dosage to the high dosage. Each treatment was repeated two to four times.
# (§13) The herbicide was applied once. After spraying, the pots were air-dried for one day and then placed in the glass greenhouse. Regular watering was conducted to maintain moisture.
# (§14) The damage symptoms of the weeds (such as growth inhibition, chlorosis, malformation, etc.) were carefully recorded at 3, 7, 10, and 20 days after herbicide application. A visual comparison of the herbicide effectiveness was made. At 20 days post-application, the fresh weight of the aboveground parts of the weeds from each treatment group was measured, and the fresh weight control efficacy was calculated.
# (§15) The treatment results were calculated according to the following formula: weed fresh weight control efficacy (%)=(control fresh weight−treatment fresh weight)/control fresh weight×100.
# (§16) A DPS statistical software was used to conduct regression analysis on the logarithmic values of the herbicide dosage and the probit values of the weed fresh weight control efficacy, and the correlation coefficient, GR50, GR90, and the 95% confidence interval were calculated.
# Eleusine indica = assay: as above; conditions: fresh weight control efficacy 20 days post-application
# Protocol: as §8, §9, §10, §5, §11, §12, §13, §14, §15, §16
# Portulaca oleracea = assay: as above; conditions: for GR50 (95% confidence interval) / GR90 (95% confidence interval): fresh weight control efficacy 20 days post-application
# Protocol: as §8, §9, §10, §5, §11, §12, §13, §14, §15, §16
# [2] = tested on: Abutilon theophrasti medicus; assay: as above; conditions: for Visual observation of weeds: 3 to 7 days after application, broadleaf weeds like Abutilon theophrasti medicus; for GR90 (95% confidence interval) / GR50 (95% confidence interval): fresh weight control efficacy 20 days post-application
# Protocol: as §8, §9, §10, §5, §11, §12, §13, §14, §15, §16
# Digitaria sanguinalis = assay: as above; conditions: fresh weight control efficacy 20 days post-application
# Protocol: as §8, §9, §10, §5, §11, §12, §13, §14, §15, §16
# Eclipta prostrata = assay: Laboratory bioactivity efficacy test 2.1 (foliar spray); conditions: for GR50 / GR90: fresh weight control efficacy 14 days after application
# Description: as §1, §2, §3, §4, §5, §6, §7
# (§17) A DPS statistical software was used to conduct regression analysis on the logarithmic values of the herbicide dosage and the probit values of the corn fresh weight control efficacy, and the correlation coefficient, GR50, GR90, and the 95% confidence interval were calculated.
# Cirsium setosum = assay: as above; conditions: for GR50 / GR90: fresh weight control efficacy 14 days after application
# Description: as §1, §2, §3, §4, §5, §6, §7, §17
# Chenopodium album = assay: as above; conditions: for GR50 / GR90: fresh weight control efficacy 14 days after application
# Description: as §1, §2, §3, §4, §5, §6, §7, §17
# Cyperus rotundus = assay: as above; conditions: for GR50 / GR90: fresh weight control efficacy 14 days after application
# Description: as §1, §2, §3, §4, §5, §6, §7, §17
# Acalypha australis = assay: as above; conditions: for GR50 / GR90: fresh weight control efficacy 14 days after application
# Description: as §1, §2, §3, §4, §5, §6, §7, §17
# Chloris virgata = assay: as above; conditions: for GR50 / GR90: fresh weight control efficacy 14 days after application
# Description: as §1, §2, §3, §4, §5, §6, §7, §17
# Setaria viridis = assay: as above; conditions: for GR50 / GR90: fresh weight control efficacy 14 days after application
# Description: as §1, §2, §3, §4, §5, §6, §7, §17
# Convolvulus arvensis = assay: as above; conditions: for GR50 / GR90: fresh weight control efficacy 14 days after application
# Description: as §1, §2, §3, §4, §5, §6, §7, §17
# Amaranthus retroflexus = assay: as above; conditions: for GR50 / GR90: fresh weight control efficacy 14 days after application
# Description: as §1, §2, §3, §4, §5, §6, §7, §17
# Commelina communis = assay: as above; conditions: for GR50 / GR90: fresh weight control efficacy 14 days after application
# Description: as §1, §2, §3, §4, §5, §6, §7, §17
smiles,measurement,setting,value
"COC(=O)OC(C)Oc1c(C(=O)c2ccc(S(C)(=O)=O)c(C3=NOCC3)c2C)cnn1C (centres unmarked) [Compound I, 1-((4-(3-(4,5-dihydroisoxazol-3-yl)-2-methyl-4-(methylsulfonyl)benzoyl)-1-methyl-1H-pyrazol-5-yl)oxy)ethyl methyl carbonate]",Symptoms on the test weeds,[1],clear pesticidal efficacy symptoms
same,GR50,Echinochloa crusgalli,6.03 g a.i./ha
same,GR90,Echinochloa crusgalli,11.04 g a.i./ha
same,GR50,Eleusine indica,2.71 g a.i./ha
same,GR90,Eleusine indica,14.85 g a.i./ha
same,Control efficacy compared with Topramezone (in words),Portulaca oleracea,significantly better control efficacy
same,Efficacy relative to that of Topramezone,Portulaca oleracea,approximately 3.8 times
same,GR50 (95% confidence interval),Portulaca oleracea,3.83 (2.36-5.16) g a.i./ha
same,GR90 (95% confidence interval),Portulaca oleracea,9.29 (7.46-10.81) g a.i./ha
same,Visual observation of weeds,[2],directly dried up and died
same,GR90 (95% confidence interval),[2]; Abutilon theophrasti Medicago,9.48 (4.30-13.21) g a.i./ha
same,GR50 (95% confidence interval),[2]; Abutilon theophrasti medicus,3.16 (0.37-5.92) g a.i./ha
same,GR50,Digitaria sanguinalis,10.92 g a.i./ha
same,GR90,Digitaria sanguinalis,35.88 g a.i./ha
same,Control efficacy compared with Topramezone (in words),Eclipta prostrata,significantly better control efficacy
same,Efficacy relative to that of Topramezone,Eclipta prostrata,approximately 2 times
same,GR50,Eclipta prostrata,2.30 g a.i./ha
same,GR90,Eclipta prostrata,11.62 g a.i./ha
same,Control efficacy compared with Topramezone (in words),Cirsium setosum,significantly better control efficacy
same,Efficacy relative to that of Topramezone,Cirsium setosum,approximately 2 times
same,GR50,Cirsium setosum,5.56 g a.i./ha
same,GR90,Cirsium setosum,20.60 g a.i./ha
same,Control efficacy compared with Topramezone (in words),Chenopodium album,significantly better control efficacy
same,Efficacy relative to that of Topramezone,Chenopodium album,approximately 2 times
same,GR50,Chenopodium album,1.22 g a.i./ha
same,GR90,Chenopodium album,5.98 g a.i./ha
same,Control efficacy compared with Topramezone (in words),Cyperus rotundus,better control efficacy
same,GR50,Cyperus rotundus,11.78 g a.i./ha
same,GR90,Cyperus rotundus,29.57 g a.i./ha
same,Control efficacy compared with Topramezone (in words),Acalypha australis,significantly better control efficacy
same,Efficacy relative to that of Topramezone,Acalypha australis,approximately 2 times
same,GR50,Acalypha australis,2.42 g a.i./ha
same,GR90,Acalypha australis,7.55 g a.i./ha
same,Control efficacy compared with Topramezone (in words),Chloris virgata,better control efficacy
same,Efficacy relative to that of Topramezone,Chloris virgata,approximately 1.5 times
same,GR50,Chloris virgata,2.25 g a.i./ha
same,GR90,Chloris virgata,10.81 g a.i./ha
same,Control efficacy compared with Topramezone (in words),Setaria viridis,better control efficacy
same,Efficacy relative to that of Topramezone,Setaria viridis,approximately 1.5 times
same,GR50,Setaria viridis,3.96 g a.i./ha
same,GR90,Setaria viridis,11.42 g a.i./ha
same,Control efficacy compared with Topramezone (in words),Convolvulus arvensis,significantly better control efficacy
same,Efficacy relative to that of Topramezone,Convolvulus arvensis,approximately 2 times
same,GR50,Convolvulus arvensis,1.81 g a.i./ha
same,GR90,Convolvulus arvensis,31.82 g a.i./ha
same,Control efficacy compared with Topramezone (in words),Amaranthus retroflexus,significantly better control efficacy
same,Efficacy relative to that of Topramezone,Amaranthus retroflexus,approximately 2 times
same,GR50,Amaranthus retroflexus,2.86 g a.i./ha
same,GR90,Amaranthus retroflexus,5.64 g a.i./ha
same,Control efficacy compared with Topramezone (in words),Commelina communis,significantly better control efficacy
same,Efficacy relative to that of Topramezone,Commelina communis,approximately 2 times
same,GR50,Commelina communis,4.98 g a.i./ha
same,GR90,Commelina communis,16.38 g a.i./ha
"Cc1c(C(=O)c2cnn(C)c2OC(=O)C(C)(C)C)ccc(S(C)(=O)=O)c1C1=NOCC1 [Compound II, 4-(3-(4,5-dihydroisoxazol-3-yl)-2-methyl-4-(methylsulfonyl)benzoyl)-1-methyl-1H-pyrazol-5-yl pivalate]",Symptoms on the test weeds,[1],clear pesticidal efficacy symptoms
same,GR50,Echinochloa crusgalli,6.13 g a.i./ha
same,GR90,Echinochloa crusgalli,12.64 g a.i./ha
same,GR50,Eleusine indica,3.79 g a.i./ha
same,GR90,Eleusine indica,19.79 g a.i./ha
same,Control efficacy compared with Topramezone (in words),Portulaca oleracea,slightly better control efficacy
same,GR50 (95% confidence interval),Portulaca oleracea,5.57 (4.07-7.00) g a.i./ha
same,GR90 (95% confidence interval),Portulaca oleracea,28.20 (23.41-35.73) g a.i./ha
same,Visual observation of weeds,[2],directly dried up and died
same,GR50 (95% confidence interval),[2]; Abutilon theophrasti Medicago,1.19 (0.26-2.46) g a.i./ha
same,GR90 (95% confidence interval),[2]; Abutilon theophrasti Medicago,7.90 (4.76-10.66) g a.i./ha
same,GR50,Digitaria sanguinalis,12.53 g a.i./ha
same,GR90,Digitaria sanguinalis,48.19 g a.i./ha
same,GR50,Eclipta prostrata,4.67 g a.i./ha
same,GR90,Eclipta prostrata,23.27 g a.i./ha
same,GR50,Cirsium setosum,15.14 g a.i./ha
same,GR90,Cirsium setosum,48.92 g a.i./ha
same,GR50,Chenopodium album,2.83 g a.i./ha
same,GR90,Chenopodium album,11.74 g a.i./ha
same,GR50,Cyperus rotundus,15.68 g a.i./ha
same,GR90,Cyperus rotundus,39.11 g a.i./ha
same,GR50,Acalypha australis,6.04 g a.i./ha
same,GR90,Acalypha australis,16.46 g a.i./ha
same,GR50,Chloris virgata,4.41 g a.i./ha
same,GR90,Chloris virgata,15.22 g a.i./ha
same,GR50,Setaria viridis,6.77 g a.i./ha
same,GR90,Setaria viridis,19.04 g a.i./ha
same,GR50,Convolvulus arvensis,7.31 g a.i./ha
same,GR90,Convolvulus arvensis,58.43 g a.i./ha
same,GR50,Amaranthus retroflexus,4.64 g a.i./ha
same,GR90,Amaranthus retroflexus,11.19 g a.i./ha
same,GR50,Commelina communis,13.73 g a.i./ha
same,GR90,Commelina communis,39.85 g a.i./ha
